This note sets out measurements from patent US20100204202A1, “DRUG FOR ALLEVIATING MOTOR COMPLICATIONS OR PSYCHIATRIC SYMPTOMS OF PARKINSON'S DISEASE” (Asubio Pharma Co., Ltd., priority 2007, published 2010).

Where two headings read alike, the source gives them in different places.

Assay [1] deals with rats. Description: Forced swimming method (anti-depressive action). The format is in vivo, rat. Conditions: 10 mg/kg i.p. The source says:
For the test, Crl: CD(SD) male rats supplied by Charles River Japan were used (6 weeks old at start of test). For the forced swimming test, the method of the improved type reported by Lucki et al. (Lucki I., “The forced swimming test as a model for core and component behavioral effects of antidepressant drugs”, Behavioural Pharmacology, 1997, 8, p. 523-532; Cryan J. F. et al., “Assessing antidepressant activity in rodents: recent developments and future needs”, TRENDS in Pharmacological Sciences, 2002, 23, p. 238-245) was used. On day 1, each rat was placed in a cylinder filled with water (height 45 cm×diameter 30 cm, water depth 30 cm, water temperature 23° C., water depth set to depth by which back legs and tail of rat will not touch the bottom). The rat was taken out after 15 minutes. At this time, the immobility period (seconds) of minutes 10-15 (5 minutes) was recorded. Based on the results, the rats were assigned to five groups so that there would be no difference among the groups. On day 2, each rat was placed in a cylinder filled with water the same as day 1 and the immobility period (seconds), swimming behavior period (seconds), and climbing behavior period (seconds) of minutes 0-5 (5 minutes) were measured. Note that the immobility period was defined as the minimum extent of movement for the rat to hold its head above the water, the swimming behavior as the swimming behavior circling around the inside of the cylinder in the horizontal direction, and the climbing behavior as the climbing behavior moving the forelimbs in the vertical direction along the cylinder walls to try to climb them. The tested substance was intraperitoneally administered 15 minutes after the end of swimming on day 1, and 4 hours and 30 minutes before swimming on day 2. Further, for the amount of locomotor activity, a measuring system (shape 48.8×48.8×30 cm, vertical 8 fractions, horizontal 8 fractions, for total of 64 fractions, Biomedica) set in a blacked out soundproof box was used to record the amount of locomotor activity of the rats at minutes 0-15 (15 minutes). Note that the dosages and timings of administration of the tested substances were set in the same way as the forced swimming test and the substance were intraperitoneally administered 24 hours, 4 hours, and 30 minutes before measurement of the amount of locomotor activity.

For assay [2], the system named is rats. Description: Amount of locomotor activity. The format is in vivo, rat. The conditions noted are these: 10 mg/kg i.p.; minutes 0-5. An excerpt: For the test, Crl: CD(SD) male rats supplied by Charles River Japan were used (6 weeks old at start of test). For the forced swimming test, the method of the improved type reported by Lucki et al. (Lucki I., “The forced swimming test as a model for core and component behavioral effects of antidepressant drugs”, Behavioural Pharmacology, 1997, 8, p. 523-532; Cryan J. F. et al., “Assessing antidepressant activity in rodents: recent developments and future needs”, TRENDS in Pharmacological Sciences, 2002, 23, p. 238-245) was used. On day 1, each rat was placed in a cylinder filled with water (height 45 cm×diameter 30 cm, water depth 30 cm, water temperature 23° C., water depth set to depth by which back legs and tail of rat will not touch the bottom). The rat was taken out after 15 minutes. At this time, the immobility period (seconds) of minutes 10-15 (5 minutes) was recorded. Based on the results, the rats were assigned to five groups so that there would be no difference among the groups. On day 2, each rat was placed in a cylinder filled with water the same as day 1 and the immobility period (seconds), swimming behavior period (seconds), and climbing behavior period (seconds) of minutes 0-5 (5 minutes) were measured. […]

In assay [3] the test system is Parkinson's disease model rats. Description: Hyperkinesia of the forelimbs and shortening of rotational behavior duration induced by repeated doses of levodopa. The format is in vivo, rat. The source says: In rats with unilateral nigrostriatal dopamine nerve destruction generally used as Parkinson's disease animal models, it became clear that by administering levodopa by repeated dosage for about 5 weeks, behavior resembling the symptoms of advanced stage Parkinson's disease appeared. That is, in Parkinson's disease model rats prepared in the same way as in Example 4, along with repeated doses of levodopa, abnormal behavior such as involuntary extending of the forelimb or opening or closing of the hand, up-and-down movement of the wrist, choreiform tremor in the forelimb on the opposite side of microinjection of 6-hydroxydopamine was observed (FIG. 3). This abnormal behavior is reported by Steece-Collier et al. (Steece-Collier K. et al., “Embryonic mesencephalic grafts increase levodopa-induced forelimb hyperkinesia in parkinsonian rats”, Movement Disorders, 2003, 18, p. 1442-1454) as hyperkinesia of the forelimbs.
This appears dependent on the period of repeated doses of levodopa and reportedly is similar to clinical dyskinesia. […] Bibbiani et al. (Bibbiani F. et al., “Serotonin 5-HT1A agonist improves motor complications in rodent and primate parkinsonian models”, Neurology, 2001, 57, p. 1829-1834) report that in Parkinson's disease model rats, along with repeated doses of levodopa, a shortening of the rotational behavior duration is observed and that this phenomenon resembles the wearing off phenomenon in clinical studies.
That is, they treated each group by repeated doses of levodopa and repeated dosage of the tested substance for about 2 weeks (Monday to Friday) and observed the hyperkinesia of the forelimbs and rotational behavior after levodopa administration. Note that the SUN N4057 was subcutaneously administered right before levodopa administration, the sarizotan was orally administered about 20 minutes before levodopa dosage in accordance with above-mentioned known reports (Bibbiani F. et al., Neurology, 2001, 57, p. 1829-1834), and the Example Compound 4 of Japanese Patent Publication No. 2005-298402A was subcutaneously administered about 30 minutes before levodopa dosage in accordance with the above-mentioned Japanese Patent Publication No. 2005-298402A. Further, for the solvent, for SUN N4057 and Example Compound 4 of Japanese Patent Publication No. 2005-298402A, physiological saline was used.
In the same way as Example 4, Parkinson's disease model rats were prepared and the rats treated by repeated doses of levodopa (twice a day, Monday to Friday) for 5 weeks and measured for hyperkinesia of the forelimbs and rotational behavior. Further, based on the results of the hyperkinesia of the forelimbs and rotational behavior duration, the rats were assigned to the groups so as to prevent any significant difference between them, then the effects of the tested substances on these behaviors resembling symptoms of advanced stage Parkinson's disease patients were compared and studied. […] Note that compound Ib (0.3, 1 mg/kg) and compound Ic (0.3, 1 mg/kg) were both intraperitoneally administered right before levodopa administration. For the solvent, physiological saline was used.

Assay [4] has as its target T1, rat serotonin 1A receptors (Rattus norvegicus, UniProt P19327).
T1 construct: Each rat was decapitated and the hippocampus was quickly removed; from tissue; host or cells: hippocampus of male Wistar rats
T1 sequence (P19327 1-422): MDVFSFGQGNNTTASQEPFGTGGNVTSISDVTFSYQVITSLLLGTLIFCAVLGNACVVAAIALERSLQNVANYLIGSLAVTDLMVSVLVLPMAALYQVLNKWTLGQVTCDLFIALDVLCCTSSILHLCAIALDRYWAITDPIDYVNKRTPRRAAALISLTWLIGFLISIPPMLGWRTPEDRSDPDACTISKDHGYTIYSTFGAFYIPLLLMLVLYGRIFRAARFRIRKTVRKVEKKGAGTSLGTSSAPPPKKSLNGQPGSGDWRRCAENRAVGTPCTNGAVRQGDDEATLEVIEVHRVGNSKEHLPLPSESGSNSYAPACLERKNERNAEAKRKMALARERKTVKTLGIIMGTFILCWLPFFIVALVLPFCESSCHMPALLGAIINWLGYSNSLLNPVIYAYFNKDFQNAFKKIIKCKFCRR
The assay can be described thus: Adenylate cyclase inhibition test via rat serotonin 1A receptors (full agonist-partial agonist judgment test), rat hippocampus membranes. The format is biochemical. The conditions noted are these: for inhibition: read-out: maximum inhibitory reaction of adenylate cyclase activity. As for the experimental part: For the test, Wistar male rats supplied by Shimizu Laboratory Supplies were used (9 to 15 weeks old). Each rat was decapitated and the hippocampus was quickly removed. It was homogenized in 10 volumes of buffer (i.e., 25 mM Tris-HCl, 1 mM EGTA, 5 mM EDTA, 5 mM DTT, 300 mM sucrose, 100 KIU/ml aprotinin, pH 7.4). This was then centrifuged at 500×g, 4° C. for 5 minutes, the supernatant was further centrifuged at 39,000×g, 4° C. for 10 minutes, and the residue was used as the rat hippocampus membrane specimen. The rat hippocampus membrane specimen was diluted by a buffer to 20 to 90 μg/mL of protein, then 50 μL of this cell membrane suspension was added to a 200 μL assay buffer containing each test sample (25 mM Tris-HCl, 100 mM NaCl, 2 mM MgCl2. 0.25 mM ATP, 5 mM phosphocreatine, 10 μg/mL creatine phosphokinase, 0.2 mM IBMX, 10 μM GTP, 10 μM forskolin, pH 7.4) and allowed to react at 30° C. for 5 minutes. 0.2N HCl was added in 250 μL to stop the reaction, then the cAMP produced was assayed by the radioimmunoassay method. […] Note that the adenylate cyclase activity was measured using as an indicator the amount of cAMP produced by the same enzyme. The rate of inhibition by the serotonin 1A receptor agonist was found using the amount of production due to forskolin (10 μM) stimulus as 100%.

As to `CNCCCN1c2ccccc2CCc2ccccc21` [desipramine], the climbing behavior period entry with rats [1] was “significant increase”. Further, in the assay with rats [1] (minutes 0-5 on day 2), the immobility period entry is listed as “significant shortening of the immobility period”. In the assay on rats [2], the “amount of locomotor activity” value was “decline”.

With `Cl.O=C1c2ccccc2OC=C(Cl)N1CCCCN1CC=C(c2ncccn2)CC1` [compound Ib, 3-chloro-4,5-dihydro-4-{4-[4-(2-pyrimidinyl)-1,2,3,6-tetrahydropyridin-1-yl]butyl}-1,4-benzoxazepin-5-one hydrochloride], the rotational behavior duration result in assay [3] (0.3, 1 mg/kg i.p. repeated 2 weeks) is “tended to be prolonged”. Besides, the “hyperkinesia of the forelimbs” value in assay [3] (0.3, 1 mg/kg i.p. repeated 2 weeks, 30 minutes and 1 hour after levodopa dosage) is on record as “significantly inhibited”.

For `Cc1ccnc(C2=CCN(CCCCN3C(=O)c4ccccc4OC=C3Cl)CC2)n1.O=C(O)/C=C/C(=O)O` [compound Ic, 3-chloro-4,5-dihydro-4-(4-{4-[(4-methyl)-2-pyrimidinyl]-1,2,3,6-tetrahydropyridin-1-yl}butyl)-1,4-benzoxazepin-5-one fumarate], the “hyperkinesia of the forelimbs” value in assay [3] (0.3 mg/kg i.p. repeated 2 weeks, 30 minutes after levodopa dosage) is “significantly inhibited”; in assay [3] (1.0 mg/kg i.p. repeated 2 weeks, 30 minutes and 1 hour after levodopa dosage), “significantly inhibited”. Further, the rotational behavior duration result in assay [3] (1.0 mg/kg i.p. repeated 2 weeks) is listed as “significantly prolonged”.

As to `O=C1c2ccccc2S(=O)(=O)N1CCCCN1CCN(c2ncccn2)CC1` [ipsapirone], in assay [4] (forskolin (10 μM) stimulated, rat hippocampus membranes, read-out: IC50 of adenylate cyclase inhibition (for the maximum reaction)), the IC50 came to 39 nM. Moreover, the inhibition in assay [4] (forskolin (10 μM) stimulus = 100%, rat hippocampus membranes) came out at 19%.

With `CCCN(CCC)[C@@H]1CCc2cccc(O)c2C1` [8-OH-DPAT, (R)-(+)-8-hydroxy-2-(di-n-propylamino)tetraline], the inhibition in assay [4] is 32%.
